Results from US11747352B2 (Concordia University, Inc., priority 2017, dated 2023).
Where two headings read alike, the source gives them in different places.

Experiments:
[1] = cited from earlier work; for F %: Table of Tyrosine Kinase Inhibitor Substrates, CYP3A4
[2] = cited from earlier work; for T½: Table of Tyrosine Kinase Inhibitor Substrates
[3] = test system: plasma protein; settings: cited from earlier work; for Protein binding %: Table of Tyrosine Kinase Inhibitor Substrates
[4] = test system: CYP3A; settings: cited from earlier work
[5] = target: T1, CYP3A5 (Homo sapiens, UniProt P20815); settings: cited from earlier work
[6] = target: T1, CYP3A5; test: Tacrolimus metabolism by rhCYP3A5 (Kamdem et al. 2005); type: in vitro ADME; settings: rhCYP3A5 vs rhCYP3A4
[7] = substrate: COC(=O)[C@@H]1CC2=CC(=O)CC[C@]2(C)[C@@]23O[C@@H]2C[C@@]2(C)[C@@H](CC[C@@]24CCC(=O)O4)[C@H]13; test: cells, lysate or membranes named; type: in vitro ADME, human

COc1ccc2c3c1O[C@H]1C(=O)CC[C@@]4(O)[C@@H](C2)N(C)CC[C@]314 [Oxycodone]
ORAL BIOAVAILABILITY ([1]; Table CYP2D6): 60-87% ^ | ORAL BIOAVAILABILITY ([1]; Table CYP3A4): 60-87% ^

[H]/N=C(/N)N/C(=N/[H])NCCc1ccccc1 [Phenformin]
HALF LIFE ([2]; Table CYP2D6): 4 to 13 h | ORAL BIOAVAILABILITY ([1]; Table CYP2D6): 40-60% ^

O=C1NC(=O)C(c2ccccc2)(c2ccccc2)N1 [Phenytoin]
HALF LIFE ([2]; Table CYP2C9): 14 to 22 h | ORAL BIOAVAILABILITY ([1]; Table CYP2C9): 20-90% ^

CC(=O)[C@H]1CC[C@H]2[C@@H]3CCC4=CC(=O)CC[C@]4(C)[C@H]3CC[C@]12C [Progesterone]
PLASMA PROTEIN BINDING ([3]; Table CYP2C19): 96-99% ^

CC(C)NCC(O)COc1cccc2ccccc12 (centres unmarked) [Propranolol]
HALF LIFE ([2]; Table CYP2D6): 3 to 6 h | ORAL BIOAVAILABILITY ([1]; Table CYP2D6): 30-70% ^

Fc1ccccc1C1=NCC(=S)N(CC(F)(F)F)c2ccc(Cl)cc21 [Quazepam]
ORAL BIOAVAILABILITY ([1]; Table CYP3A4): 29-35% ^

C=C[C@H]1C[N@@]2CC[C@H]1C[C@@H]2[C@@H](O)c1ccnc2ccc(OC)cc12 [Quinidine]
ORAL BIOAVAILABILITY ([1]; Table CYP3A4): 70-80% ^ | All CYP3A (% Metabolism) [4]: 93%

C=C[C@H]1C[N@@]2CC[C@H]1C[C@H]2[C@H](O)c1ccnc2ccc(OC)cc12 [Quinine]
ORAL BIOAVAILABILITY ([1]; Table CYP3A4): 76-88% ^

CCOc1cc(CC(=O)N[C@@H](CC(C)C)c2ccccc2N2CCCCC2)ccc1C(=O)O [Repaglinide]
ORAL BIOAVAILABILITY ([1]; Table CYP3A4): 55%

CCCN1CCCC[C@H]1C(=O)Nc1c(C)cccc1C [Ropivacaine]
HALF LIFE ([2]; Table CYP1A2): 5 to 7 h | ORAL BIOAVAILABILITY ([1]; Table CYP1A2, printed as IV): 87-98% - IV

CC(C)(C)NC(=O)[C@@H]1C[C@@H]2CCCC[C@@H]2CN1C[C@@H](O)[C@H](Cc1ccccc1)NC(=O)[C@H](CC(N)=O)NC(=O)c1ccc2ccccc2n1 [Saquinavir]
CYP3A5 (% Metabolism) [5]: 11% | All CYP3A (% Metabolism) [4]: 99%

CO[C@H]1C[C@@H]2CC[C@@H](C)[C@@](O)(O2)C(=O)C(=O)N2CCCC[C@H]2C(=O)O[C@H]([C@H](C)C[C@@H]2CC[C@@H](O)[C@H](OC)C2)CC(=O)[C@H](C)/C=C(\C)[C@@H](O)[C@@H](OC)C(=O)[C@H](C)C[C@H](C)/C=C/C=C/C=C/1C [Sirolimus]
ORAL BIOAVAILABILITY ([1]; Table CYP3A4): 14-27% ^

CCN(CC)CCNC(=O)c1c(C)[nH]c(/C=C2\C(=O)Nc3ccc(F)cc32)c1C [Sunitinib]
T½ [2]: 40 to 60 h | F % [1]: 50% | Protein binding % [3]: 95%

CCCCCc1cc(O)c2c(c1)OC(C)(C)[C@@H]1CCC(C)=C[C@@H]21 [THC]
HALF LIFE ([2]; Table CYP2C9): 1.6 to 59 h | ORAL BIOAVAILABILITY ([1]; Table CYP2C9): 10-35% ^

C=CC[C@@H]1/C=C(\C)C[C@H](C)C[C@H](OC)[C@H]2O[C@@](O)(C(=O)C(=O)N3CCCC[C@H]3C(=O)O[C@H](/C(C)=C/[C@@H]3CC[C@@H](O)[C@H](OC)C3)[C@H](C)[C@@H](O)CC1=O)[C@H](C)C[C@@H]2OC [Tacrolimus]
ORAL BIOAVAILABILITY ([1]; Table CYP3A4): 17-31% ^ | higher catalytic efficiency via CYP3A5 [6]: 60%

Cc1nnc2n1-c1ccc(Cl)cc1C(c1ccccc1Cl)=NC2 [Triazolam]
CYP3A5 (% Metabolism) [5]: 25% | All CYP3A (% Metabolism) [4]: 92%

CCCc1nc(C)c2c(=O)[nH]c(-c3cc(S(=O)(=O)N4CCN(CC)CC4)ccc3OCC)nn12 [Vardenafil]
ORAL BIOAVAILABILITY ([1]; Table CYP3A4): 15-44% ^

CN(C)CCc1c[nH]c2ccc(C[C@H]3COC(=O)N3)cc12 [Zolmirripran]
ORAL BIOAVAILABILITY ([1]; Table of Exemplary Drugs, CYP1A2): ~40%

Cc1ccc(Nc2nccc(N(C)c3ccc4c(C)n(C)nc4c3)n2)cc1S(N)(=O)=O [pazopanib]
T½ [2]: 30.9 to 31.9 h | F % [1]: 14-21% | Protein binding % [3]: >99.5%

CNC(=O)c1cc(Oc2ccc(NC(=O)Nc3ccc(Cl)c(C(F)(F)F)c3)cc2)ccn1 [sorafenib]
T½ [2]: 25 to 48 h | F % [1]: 38-49% | Protein binding % [3]: 99.5%

B1: rhCYP3A5 (Homo sapiens) (protein)
chain: MDLIPNLAVETWLLLAVSLVLLYLYGTRTHGLFKRLGIPGPTPLPLLGNVLSYRQGLWKFDTECYKKYGKMWGTYEGQLPVLAITDPDVIRTVLVKECYSVFTNRRSLGPVGFMKSAISLAEDEEWKRIRSLLSPTFTSGKLKEMFPIIAQYGDVLVRNLRREAEKGKPVTLKDIFGAYSMDVITGTSFGVNIDSLNNPQDPFVESTKKFLKFGFLDPLFLSIILFPFLTPVFEALNVSLFPKDTINFLSKSVNRMKKSRLNDKQKHRLDFLQLMIDSQNSKETESHKALSDLELAAQSIIFIFAGYETTSSVLSFTLYELATHPDVQQKLQKEIDAVLPNKAPPTYDAVVQMEYLDMVVNETLRLFPVAIRLERTCKKDVEINGVFIPKGSMVVIPTYALHHDPKYWTEPEEFRPERFSKKKDSIDPYIYTPFGTGPRNCIGMRFALMNMKLALIRVLQNFSFKPCKETQIPLKLDTQGLLQPEKPIVLKVDSRDGTLSGE
notes: purchased BD Biosciences/Corning
Km ([7]; other: 6β-OH metabolite formation, rhCYP3A5 (printed rhCYPA5)): 142 mcM | Km ([7]; other: 21-OH metabolite formation, rhCYP3A5): 72 mcM
